Laboratory results as given in patent publication US20090047304A1, “Composition For Body Fat Reduction” (priority 2004, published 2009).

Key:
[1] = cited from earlier work
[2] = Takahashi et al.; cited from earlier work
[3] = Double-blind 6-week intake test of test capsules with walking exercise; rate of body fat and body weight measured; format: in vivo, human; settings: by intake of astaxanthin, 6 weeks
Description: This Hematococcus alga extract was formed into a capsule containing 6 mg of astaxanthin in terms of the free form (test capsule) and used for test. As placebo capsule (control capsule), a capsule containing 0 mg of astaxanthin and having the same shape was used for test.
32 persons to be tested who were healthy women 23-57 years old were divided at random into two groups i.e. test and control groups, each consisting of 16 persons. The allocation of persons to be tested into test and control groups was conducted in a double-blind method not so as to know persons to be tested and persons participated in test the fact that each of persons to be tested belongs to which group.
Each of persons to be tested in test group took two test capsules a day after supper while each of persons in control group took two placebo capsules a day after supper. The intake period of term (test period of term) was 6 weeks. The rate of body fat and body weight were measured at the beginning (0 week) and the completion (6 weeks) of test for all persons. The rate of body fat was measured with a weighing meter [TBF-511, a product of Tanita Co. Ltd.]
Exercise loaded on all persons to be tested in test period of term was walking. The quantity of exercise was determined by a maximum heart rate countering method. […]

SMILES: CC1=C(/C=C/C(C)=C/C=C/C(C)=C/C=C/C=C(C)/C=C/C=C(C)/C=C/C2=C(C)C(=O)C(O)CC2(C)C)C(C)(C)CC(O)C1=O (stereo not drawn) [astaxanthin, 3,3′-dihydroxy-β, β-carotene-4,4′-dione]
- antioxidative action, times as strong as vitamin E ([1]; relative to vitamin E): about 1000 times
- antioxidative action, times as strong as β-carotene ([1]; relative to β-carotene): about 40 times
- mutagenicity [2]: has not been observed having any mutagenicity
- rate of body fat (in words) [3]: decreases
